# Data: patent publication US9302999B2, “Substituted triazoles as herbicides” (E. I. DU PONT DE NEMOURS AND COMPANY, priority 2012, dated 2016)
# How the values were obtained:
# Format in all cases: in vivo
# [1] = system: wheat (Triticum aestivum); assay: Test A pre-/postemergence: wheat; details: for Wheat plant response rating: Postemergence; for Plant response rating, Wheat: Preemergence
# Procedure, shortened: (§1)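 Compounds, formulated with surfactant in non-phytotoxic solvent, were applied as a directed soil spray preemergence and as postemergence sprays to 2–10 cm, one- to two-leaf seedlings grown in loam soil blended with sand; visual injury, 0–100, assessed ~10 days post-treatment against untreated controls.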
# [2] = system: velvetleaf (Abutilon theophrasti); assay: Test A pre-/postemergence: velvetleaf; details: for Velvetleaf plant response rating: Postemergence; for Plant response rating, Velvetleaf: Preemergence
# Procedure, shortened: as §1
# [3] = system: barnyardgrass (Echinochloa crus-galli); assay: Test C flooded paddy test: barnyardgrass; details: scale 0 to 100 (0 no effect, 100 complete control)
# Procedure, shortened: (§2)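 Rating: visual, 0–100 (100 = complete control), versus untreated controls after 13 to 15 greenhouse days. Treatment went into paddy water held at 3 cm over the soil, on plants grown to two leaves.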
# rice (Oryza sativa) = assay: Test C flooded paddy test: rice; details: scale 0 to 100 (0 no effect, 100 complete control)
# Procedure, shortened: as §2
# [4] = system: barnyardgrass (Echinochloa crus-galli); assay: Test A pre-/postemergence: barnyardgrass; details: for Barnyardgrass plant response rating: Postemergence; for Plant response rating, Barnyardgrass: Preemergence
# Procedure, shortened: as §1
# [5] = system: morningglory (Ipomoea spp.); assay: Test A pre-/postemergence: morningglory; details: for Morningglory plant response rating: Postemergence; for Plant response rating, Morningglory: Preemergence
# Procedure, shortened: as §1
# [6] = system: pigweed (Amaranthus retroflexus); assay: Test A pre-/postemergence: pigweed; details: for Pigweed plant response rating: Postemergence; for Plant response rating, Pigweed: Preemergence
# Procedure, shortened: as §1
# [7] = system: foxtail, giant (giant foxtail, Setaria faberii); assay: Test A pre-/postemergence: foxtail, giant; details: for Foxtail, Giant plant response rating: Postemergence; for Plant response rating, Foxtail, Giant: Preemergence
# Procedure, shortened: as §1
# corn (Zea mays) = assay: Test A pre-/postemergence: corn; details: for Corn plant response rating: Postemergence; for Plant response rating, Corn: Preemergence
# Procedure, shortened: as §1
# [8] = system: crabgrass, large (large crabgrass, Digitaria sanguinalis); assay: Test A pre-/postemergence: crabgrass, large; details: for Crabgrass, Large plant response rating: Postemergence; for Plant response rating, Crabgrass, Large: Preemergence
# Procedure, shortened: as §1
# [9] = system: sedge, umbrella (small-flower umbrella sedge, Cyperus difformis); assay: Test C flooded paddy test: sedge, umbrella; details: scale 0 to 100 (0 no effect, 100 complete control)
# Procedure, shortened: as §2
# [10] = system: ducksalad (Heteranthera limosa); assay: Test C flooded paddy test: ducksalad; details: scale 0 to 100 (0 no effect, 100 complete control)
# Procedure, shortened: as §2
# [11] = 125 g ai/ha, 0 to 100 scale, 0 is no effect, 100 is complete control
# [12] = 500 g ai/ha, visual rating on 0 to 100 scale (0 no effect, 100 complete control), approximately ten days
# [13] = 125 g ai/ha, 0 to 100 scale (0 no effect, 100 complete control)
# [14] = 500 g ai/ha, 0 to 100 scale, 0 is no effect, 100 is complete control
# [15] = Flood (flooded paddy test), 62 g ai/ha, visual rating after 13 to 15 days
# [16] = Flood (flooded paddy test), 250 g ai/ha, visual rating after 13 to 15 days
# [17] = Flood (flooded paddy test), 125 g ai/ha, visual rating after 13 to 15 days
smiles,measurement,setting,value
Cc1nn(-c2ccc(C(F)(F)F)cc2)nc1Cc1cnn(CC(F)(F)F)c1 [Compound 51],Wheat plant response rating,[1]; [11],0
same,Wheat plant response rating,[1]; [12],0
same,"Plant response rating, Wheat",[1]; [13],0
same,"Plant response rating, Wheat",[1]; [14],0
same,Velvetleaf plant response rating,[2]; [11],0
same,Velvetleaf plant response rating,[2]; [12],10
same,"Plant response rating, Velvetleaf",[2]; [13],0
same,"Plant response rating, Velvetleaf",[2]; [14],0
same,"Plant response rating, Barnyardgrass",[3]; [15],0
same,"Plant response rating, Barnyardgrass",[3]; [16],0
same,"Plant response rating, Rice",rice (Oryza sativa); [15],0
same,"Plant response rating, Rice",rice (Oryza sativa); [16],0
same,Barnyardgrass plant response rating,[4]; [11],0
same,Barnyardgrass plant response rating,[4]; [12],10
same,"Plant response rating, Barnyardgrass",[4]; [13],0
same,"Plant response rating, Barnyardgrass",[4]; [14],0
same,Morningglory plant response rating,[5]; [11],0
same,Morningglory plant response rating,[5]; [12],10
same,"Plant response rating, Morningglory",[5]; [13],0
same,"Plant response rating, Morningglory",[5]; [14],0
same,Pigweed plant response rating,[6]; [11],10
same,Pigweed plant response rating,[6]; [12],60
same,"Plant response rating, Pigweed",[6]; [13],0
same,"Plant response rating, Pigweed",[6]; [14],0
same,"Foxtail, Giant plant response rating",[7]; [11],0
same,"Foxtail, Giant plant response rating",[7]; [12],10
same,"Plant response rating, Foxtail, Giant",[7]; [13],0
same,"Plant response rating, Foxtail, Giant",[7]; [14],10
same,Corn plant response rating,corn (Zea mays); [11],0
same,Corn plant response rating,corn (Zea mays); [12],10
same,"Plant response rating, Corn",corn (Zea mays); [13],0
same,"Plant response rating, Corn",corn (Zea mays); [14],0
same,"Crabgrass, Large plant response rating",[8]; [11],0
same,"Crabgrass, Large plant response rating",[8]; [12],10
same,"Plant response rating, Crabgrass, Large",[8]; [13],0
same,"Plant response rating, Crabgrass, Large",[8]; [14],0
same,"Plant response rating, Sedge, Umbrella",[9]; [15],0
same,"Plant response rating, Sedge, Umbrella",[9]; [16],0
same,"Plant response rating, Ducksalad",[10]; [15],0
same,"Plant response rating, Ducksalad",[10]; [16],0
Cc1nn(-c2ccc(Cl)cc2)nc1Oc1ccnc(C(F)(F)F)c1 [Compound 52],Wheat plant response rating,[1]; [11],10
same,Wheat plant response rating,[1]; [12],20
same,"Plant response rating, Wheat",[1]; [13],0
same,"Plant response rating, Wheat",[1]; [14],0
same,Velvetleaf plant response rating,[2]; [11],30
same,Velvetleaf plant response rating,[2]; [12],100
same,"Plant response rating, Velvetleaf",[2]; [13],0
same,"Plant response rating, Velvetleaf",[2]; [14],10
same,"Plant response rating, Barnyardgrass",[3]; [15],40
same,"Plant response rating, Barnyardgrass",[3]; [16],75
same,"Plant response rating, Rice",rice (Oryza sativa); [15],15
same,"Plant response rating, Rice",rice (Oryza sativa); [16],40
same,Barnyardgrass plant response rating,[4]; [11],20
same,Barnyardgrass plant response rating,[4]; [12],70
same,"Plant response rating, Barnyardgrass",[4]; [13],20
same,"Plant response rating, Barnyardgrass",[4]; [14],90
same,Morningglory plant response rating,[5]; [11],40
same,Morningglory plant response rating,[5]; [12],100
same,"Plant response rating, Morningglory",[5]; [13],10
same,"Plant response rating, Morningglory",[5]; [14],20
same,Pigweed plant response rating,[6]; [11],100
same,Pigweed plant response rating,[6]; [12],100
same,"Plant response rating, Pigweed",[6]; [13],100
same,"Foxtail, Giant plant response rating",[7]; [11],50
same,"Foxtail, Giant plant response rating",[7]; [12],100
same,"Plant response rating, Foxtail, Giant",[7]; [13],100
same,"Plant response rating, Foxtail, Giant",[7]; [14],100
same,Corn plant response rating,corn (Zea mays); [11],10
same,Corn plant response rating,corn (Zea mays); [12],20
same,"Plant response rating, Corn",corn (Zea mays); [13],0
same,"Plant response rating, Corn",corn (Zea mays); [14],10
same,"Crabgrass, Large plant response rating",[8]; [11],50
same,"Crabgrass, Large plant response rating",[8]; [12],100
same,"Plant response rating, Crabgrass, Large",[8]; [13],100
same,"Plant response rating, Crabgrass, Large",[8]; [14],100
same,"Plant response rating, Sedge, Umbrella",[9]; [15],65
same,"Plant response rating, Sedge, Umbrella",[9]; [16],85
same,"Plant response rating, Ducksalad",[10]; [15],80
same,"Plant response rating, Ducksalad",[10]; [16],95
Cc1nn(-c2cccc(C(F)(F)F)n2)nc1C(=O)c1cccc(C(F)(F)F)c1 [Compound 57],Wheat plant response rating,[1]; [11],0
same,Wheat plant response rating,[1]; [12],0
same,"Plant response rating, Wheat",[1]; [13],0
same,"Plant response rating, Wheat",[1]; [14],0
same,Velvetleaf plant response rating,[2]; [11],0
same,Velvetleaf plant response rating,[2]; [12],0
same,"Plant response rating, Velvetleaf",[2]; [13],0
same,"Plant response rating, Velvetleaf",[2]; [14],0
same,"Plant response rating, Barnyardgrass",[3]; [15],0
same,"Plant response rating, Barnyardgrass",[3]; [17],0
same,"Plant response rating, Barnyardgrass",[3]; [16],0
same,"Plant response rating, Barnyardgrass","[3]; Flood, 31 g ai/ha",0
same,"Plant response rating, Rice",rice (Oryza sativa); [15],0
same,"Plant response rating, Rice",rice (Oryza sativa); [17],0
same,"Plant response rating, Rice",rice (Oryza sativa); [16],0
same,"Plant response rating, Rice","rice (Oryza sativa); Flood, 31 g ai/ha",0
same,Barnyardgrass plant response rating,[4]; [11],0
same,Barnyardgrass plant response rating,[4]; [12],0
same,"Plant response rating, Barnyardgrass",[4]; [13],0
same,"Plant response rating, Barnyardgrass",[4]; [14],0
same,Morningglory plant response rating,[5]; [11],0
same,Morningglory plant response rating,[5]; [12],0
same,"Plant response rating, Morningglory",[5]; [13],0
same,"Plant response rating, Morningglory",[5]; [14],0
same,Pigweed plant response rating,[6]; [11],0
same,Pigweed plant response rating,[6]; [12],10
same,"Plant response rating, Pigweed",[6]; [13],0
same,"Plant response rating, Pigweed",[6]; [14],0
same,"Foxtail, Giant plant response rating",[7]; [11],0
same,"Foxtail, Giant plant response rating",[7]; [12],0
same,"Plant response rating, Foxtail, Giant",[7]; [13],0
same,"Plant response rating, Foxtail, Giant",[7]; [14],0
same,Corn plant response rating,corn (Zea mays); [11],0
same,Corn plant response rating,corn (Zea mays); [12],0
same,"Plant response rating, Corn",corn (Zea mays); [13],0
same,"Plant response rating, Corn",corn (Zea mays); [14],0
same,"Crabgrass, Large plant response rating",[8]; [11],0
same,"Crabgrass, Large plant response rating",[8]; [12],10
same,"Plant response rating, Crabgrass, Large",[8]; [13],0
same,"Plant response rating, Crabgrass, Large",[8]; [14],0
same,"Plant response rating, Sedge, Umbrella",[9]; [15],0
same,"Plant response rating, Sedge, Umbrella",[9]; [17],0
same,"Plant response rating, Sedge, Umbrella",[9]; [16],0
same,"Plant response rating, Sedge, Umbrella","[9]; Flood, 31 g ai/ha",0
same,"Plant response rating, Ducksalad",[10]; [15],0
same,"Plant response rating, Ducksalad",[10]; [17],0
same,"Plant response rating, Ducksalad",[10]; [16],0
same,"Plant response rating, Ducksalad","[10]; Flood, 31 g ai/ha",0
Cc1nn(-c2ccc(I)cc2)nc1C(=O)c1cccc(C(F)(F)F)c1 [Compound 61],Wheat plant response rating,[1]; [11],0
same,Wheat plant response rating,[1]; [12],0
same,"Plant response rating, Wheat",[1]; [13],0
same,"Plant response rating, Wheat",[1]; [14],0
same,Velvetleaf plant response rating,[2]; [11],10
same,Velvetleaf plant response rating,[2]; [12],30
same,"Plant response rating, Velvetleaf",[2]; [13],0
same,"Plant response rating, Velvetleaf",[2]; [14],0
same,"Plant response rating, Barnyardgrass",[3]; [15],0
same,"Plant response rating, Barnyardgrass",[3]; [17],0
same,"Plant response rating, Barnyardgrass",[3]; [16],0
same,"Plant response rating, Barnyardgrass","[3]; Flood, 31 g ai/ha",0
same,"Plant response rating, Rice",rice (Oryza sativa); [15],0
same,"Plant response rating, Rice",rice (Oryza sativa); [17],0
same,"Plant response rating, Rice",rice (Oryza sativa); [16],0
same,"Plant response rating, Rice","rice (Oryza sativa); Flood, 31 g ai/ha",0
same,Barnyardgrass plant response rating,[4]; [11],0
same,Barnyardgrass plant response rating,[4]; [12],10
same,"Plant response rating, Barnyardgrass",[4]; [13],0
same,"Plant response rating, Barnyardgrass",[4]; [14],0
same,Morningglory plant response rating,[5]; [11],10
same,Morningglory plant response rating,[5]; [12],30
same,"Plant response rating, Morningglory",[5]; [13],0
same,"Plant response rating, Morningglory",[5]; [14],0
same,Pigweed plant response rating,[6]; [11],40
same,Pigweed plant response rating,[6]; [12],80
same,"Plant response rating, Pigweed",[6]; [13],0
same,"Plant response rating, Pigweed",[6]; [14],10
same,"Foxtail, Giant plant response rating",[7]; [11],0
same,"Foxtail, Giant plant response rating",[7]; [12],10
same,"Plant response rating, Foxtail, Giant",[7]; [13],0
same,"Plant response rating, Foxtail, Giant",[7]; [14],10
same,Corn plant response rating,corn (Zea mays); [11],10
same,Corn plant response rating,corn (Zea mays); [12],10
same,"Plant response rating, Corn",corn (Zea mays); [13],0
same,"Plant response rating, Corn",corn (Zea mays); [14],0
same,"Crabgrass, Large plant response rating",[8]; [11],0
same,"Crabgrass, Large plant response rating",[8]; [12],10
same,"Plant response rating, Crabgrass, Large",[8]; [13],0
same,"Plant response rating, Crabgrass, Large",[8]; [14],10
same,"Plant response rating, Sedge, Umbrella",[9]; [15],0
same,"Plant response rating, Sedge, Umbrella",[9]; [17],0
same,"Plant response rating, Sedge, Umbrella",[9]; [16],0
same,"Plant response rating, Sedge, Umbrella","[9]; Flood, 31 g ai/ha",0
same,"Plant response rating, Ducksalad",[10]; [15],0
same,"Plant response rating, Ducksalad",[10]; [17],0
same,"Plant response rating, Ducksalad",[10]; [16],0
same,"Plant response rating, Ducksalad","[10]; Flood, 31 g ai/ha",0
